Source: ChEMBL document CHEMBL5149985, “Discovery of cytotoxic natural products from Red Sea sponges: Structure and synthesis” (Eur J Med Chem, 2021)
Values belong to the compound of their own block, whether it stands above or below them.

What was measured:
[1] = system: HeLa; test: Anticancer activity against human HeLa cells assessed as inhibition of cell growth; assay type: functional, cell-based
[2] = system: KB 3-1; test: Anticancer activity against human KB 3-1 cells assessed as inhibition in cell growth; assay type: functional, cell-based
[3] = species: Homo sapiens; test: Inhibition of actin (unknown origin) polymerization at 1 uM incubated for 20 mins in presence of ATP by ELISA analysis relative to control
[4] = system: MDA-MB-231; test: Anticancer activity against human MDA-MB-231 cells assessed as inhibition of cell growth incubated for 72 hrs by MTT assay; assay type: functional, cell-based; settings: MDA-MB-231, 72 h
[5] = Inhibition of actin (unknown origin) polymerization at 100 nM incubated for 20 mins in presence of ATP by ELISA analysis relative to control; settings: Homo sapiens
[6] = Inhibition of actin (unknown origin) polymerization incubated for 20 mins in presence of ATP by ELISA analysis; parameters: species or system Homo sapiens
[7] = system: MCF7; test: Anticancer activity against human MCF7 cells assessed as inhibition of cell growth incubated for 72 hrs by MTT assay; assay type: functional, cell-based; settings: MCF7, 72 h
[8] = system: P388; test: Anticancer activity against mouse P388 cells assessed as cell growth inhibition; assay type: functional, cell-based
[9] = system: HCT-116; test: Anticancer activity against human HCT-116 cells assessed as inhibition of cell growth incubated for 72 hrs by SRB assay; assay type: functional, cell-based; settings: HCT-116, 72 h
[10] = system: HepG2; test: Anticancer activity against human HepG2 cells assessed as inhibition of cell growth incubated for 72 hrs by SRB assay; assay type: functional, cell-based; settings: HepG2, 72 h
[11] = system: MCF7; test: Anticancer activity against human MCF7 cells assessed as inhibition of cell growth incubated for 72 hrs by SRB assay; assay type: functional, cell-based; settings: MCF7, 72 h
[12] = system: HCT-116; test: cells; settings: Homo sapiens
Description: Anticancer activity against human HCT-116 cells assessed as inhibition of cell growth by MTT assay

[13] = system: HepG2; test: cells; settings: Homo sapiens
Description: Anticancer activity against human HepG2 cells assessed as inhibition of cell growth by MTT assay

[14] = system: HT-29; test: Anticancer activity against human HT-29 cells assessed as cell growth inhibition; assay type: functional, cell-based
[15] = system: A549; test: Anticancer activity against human A549 cells assessed as cell growth inhibition; assay type: functional, cell-based

IC50 [1]: 20 nM
Compound: O=C(O)[C@H](O)Cc1c[nH]c2ccc(O)cc12 [HYRTIOERECTINE C]

Compound: CC1=C(CC[C@H]2[C@]3(C)CC[C@H](O)C(C)(C)O[C@H]3CC[C@]2(C)O)[C@@H]2[C@H](CC1OO)[C@@](C)(O)CCC2(C)C (stereo not given in full)
IC50 [2]: 4.7 nM

Compound: C/C1=C/C(=O)O[C@@H]2C[C@@H](CC[C@H](C)/C=C\C=C\CC1)O[C@@](OC(=O)c1ccccc1)([C@@H]1CSC(=O)N1)C2
inhibition [3]: 67%
IC50 [4]: 5050 nM
inhibition [5]: 23%
IC50 [6]: 466 nM
IC50 [7]: 520 nM

IC50 [1]: 26 nM
Compound: O=C(O)C(=O)c1c(-c2c[nH]c3cc(O)ccc23)ncc2[nH]c3ccc(O)cc3c12

Compound: CC1=C(CC[C@H]2[C@]3(C)CC[C@H](O)C(C)(C)O[C@H]3CC[C@@]2(C)O)[C@](C)(C/C=C/C(C)(C)OO)[C@H](O)CC1
IC50 [2]: 3.9 nM

Compound: CO[C@]1([C@@H]2CSC(=O)N2)C[C@H]2C[C@@H](CC[C@H](C)/C=C\C=C\CC/C(C)=C\C(=O)O2)O1
inhibition [3]: 21%
IC50 [4]: 23400 nM
inhibition [5]: 6%
IC50 [6]: 9230 nM

IC50 [2]: 7.1 nM
Compound: CC1=C(CC[C@H]2[C@]3(C)CC[C@H](O)C(C)(C)O[C@H]3CC[C@]2(C)O)[C@@H]2[C@H](CC1=O)[C@@](C)(O)CCC2(C)C [SIPHOLENOL K]

Compound: C=C(OO)C(C)CC[C@@]1(C)C(CC[C@H]2[C@]3(C)CC[C@H](O)C(C)(C)O[C@H]3CC[C@@]2(C)O)=C(C)CC[C@H]1O (stereo not given in full)
IC50 [2]: 4.6 nM

Compound: CO[C@]1([C@@H]2CSC(=O)N2C(=O)c2ccccc2)C[C@H]2C[C@@H](CC[C@H](C)/C=C\C=C\CC/C(C)=C\C(=O)O2)O1
inhibition [3]: 53%
IC50 [4]: 4480 nM
inhibition [5]: 17%
IC50 [6]: 834 nM
IC50 [7]: 550 nM

IC50 [8]: 7.2 nM
IC50 [1]: 12.8 nM
Compound: C#C/C=C\CCCC/C=C\C#CC#CCCC/C=C\C#CCO [CALLYSPONGENOL C]

IC50 [8]: 32.6 nM
IC50 [1]: 32.6 nM
Compound: C#C/C=C\CCCCCCC#CC#CCCC/C=C\C#CCO [CALLYSPONGENOL B]

IC50 [9]: 26100 nM
IC50 [10]: 19200 nM
IC50 [11]: 24000 nM
Compound: CC(=O)O[C@H]1C[C@H]2[C@]3(C)CC[C@H]4C(C)(C)CCC[C@]4(C)[C@H]3C[C@@H](O)[C@]2(C)C2=C1COC2=O [SESTERSTATIN 7]

IC50 [2]: 4.7 nM
Compound: C[C@@H]1CC[C@H]2[C@@H](/C1=C/C[C@H]1[C@]3(C)CCC(=O)C(C)(C)O[C@H]3CC[C@]1(C)O)C(C)(C)CC[C@]2(C)O

IC50 [12]: 1.8 nM
IC50 [13]: 4.4 nM
Compound: CC(=O)O[C@H]1C[C@H]2[C@@](C)(CC[C@H]3C(C)(C)CCC[C@]23C)[C@@H]2CC=C(C(C)=O)C[C@]21C

IC50 [9]: 27100 nM
IC50 [10]: 23400 nM
IC50 [11]: 36000 nM
Compound: CC1(C)CCC[C@]2(C)[C@H]3C[C@@H](O)[C@]4(C)[C@@H](C=O)C(C=O)=CC[C@H]4[C@]3(C)CC[C@@H]12

Compound: CO[C@]1([C@@H]2CSC(=O)N2Cc2ccccc2)C[C@H]2C[C@@H](CC[C@H](C)/C=C\C=C\CC/C(C)=C\C(=O)O2)O1
inhibition [3]: 67%
IC50 [4]: 6820 nM
inhibition [5]: 33%
IC50 [6]: 333 nM
IC50 [7]: 780 nM

Compound: CO[C@]1([C@@H]2CSC(=O)N2C2CCCC2)C[C@H]2C[C@@H](CC[C@H](C)/C=C\C=C\CC/C(C)=C\C(=O)O2)O1
inhibition [3]: 49%
IC50 [4]: 5070 nM
inhibition [5]: 20%
IC50 [6]: 1050 nM
IC50 [7]: 5300 nM

Compound: C=C1CCCC(C)(C)C1(O)CCC[C@@]1(C)CC[C@@H]([C@H](C)C(=O)OC)OO1 (stereo not given in full)
IC50 [14]: ≥ 1 µg/mL
IC50 [15]: ≥ 1 µg/mL
IC50 [8]: ≥ 1 µg/mL

IC50 [9]: 3500 nM
IC50 [10]: 9600 nM
IC50 [11]: 12700 nM
Compound: CC(=O)O[C@H]1C[C@H]2[C@]3(C)CC[C@H]4C(C)(C)CCC[C@]4(C)[C@H]3C[C@@H](O)[C@]2(C)C2=C1C(O)OC2=O (stereo not given in full)

IC50 [2]: 4.2 nM
Compound: CC(C)=CCC[C@@]1(C)C(CC[C@H]2[C@]3(C)CC[C@H](O)C(C)(C)O[C@H]3CC[C@@]2(C)O)=C(C)CC[C@H]1O [SIPHONELLINOL D]

IC50 [8]: 6.7 nM
Compound: NC(=O)Cc1cc(Br)c(O)c(Br)c1O

Compound: CO[C@]1([C@@H]2CSC(=O)N2CCCO)C[C@H]2C[C@@H](CC[C@H](C)/C=C\C=C\CC/C(C)=C\C(=O)O2)O1
inhibition [3]: 21%
IC50 [4]: > 50000 nM
inhibition [5]: 0%
IC50 [6]: 8550 nM
